Patent US20260007601A1, “IONIZABLE CATIONIC LIPID COMPOUND AND COMPOSITION FOR DELIVERING NUCLEIC ACID AND USE THEREOF” (BEIJING YOUCAREKECHUANG PHARMACEUTICAL TECHNOLOGY CO., LTD., priority 2023, published 2026)
Values joined by “and” are separate entries in the source; they are usually repeats but may differ in a detail not shown here. Equal entries are not always repeated.

How the values were obtained:
[1] = Encapsulation rate, drug loading concentration and total RNA concentration detection (RiboGreen); type: physicochemical
293T cells = experiment: Fluorescence detection of Fluc-mRNA (cell transfection efficiency of LNP formulations); type: cell-based
In short: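 293T cells at 10,000 per well, adhered overnight, then given LNPs carrying 0.3 μg Fluc-mRNA (cationic:neutral:structured:polymer-conjugated lipid 49:10:39.5:1.5 molar). After 24 h, luciferase signal read with luciferase kit reagents on an IVIS imaging system as transfection efficiency.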

female BALB/C mice = experiment: Mouse in vivo imaging of Fluc-mRNA LNP formulations; set-up: average radiation intensity (mRNA expression): unit not given here; conditions: for average radiation intensity (mRNA expression): 10 μg Fluc-mRNA LNP intramuscularly
In short: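 Female BALB/C mice (4–6 weeks, 17–19 g) received LNP carrying 10 μg Fluc-mRNA intramuscularly. Imaging substrate given intraperitoneally at 6 h, 24 h, 48 h and 7 d; after 5 min free movement, average radiance read by IVIS Spectrum imaging.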

[2] = LNP formulation of the named lipid

Compound: CCCCCCCCC(CCCCCCCC)COC(=O)CCCCCN(CCCCCC(=O)OCC(CCCCCCCC)CCCCCCCC)CCN(C)CCO [YK-209, bis(2-octyldecyl)-6,6′-((2-(2-hydroxyethyl(methyl)amino)ethyl)azadialkyl)dihexanoate]
- drug loading concentration, times that of ALC-0315 [1]: 1.60 times
- drug loading concentration, times that of HHMA [1]: 1.36 times
- drug loading concentration, times that of SM-102 [1]: 1.64 times
- drug loading concentration, times that of YK-009 [1]: 1.55 times
- drug loading concentration, times that of compound 21 [1]: 1.85 times
- drug loading concentration, times that of compound 23 [1]: 2.02 times and 2 times
- total RNA concentration, times that of ALC-0315 [1]: 1.17 times
- total RNA concentration, times that of HHMA [1]: 1.15 times
- total RNA concentration, times that of SM-102 [1]: 1.23 times
- total RNA concentration, times that of YK-009 [1]: 1.12 times
- total RNA concentration, times that of compound 21 [1]: 1.41 times
- total RNA concentration, times that of compound 23 [1]: 1.34 times
- Drug loading concentration [1, 2]: 41.76 µg/mL
- Encapsulation rate [1, 2]: 96.2%
- Total RNA concentration [1, 2]: 43.42 µg/mL
- encapsulation rate higher than that of ALC-0315 ([1]; difference of rates): 33.40%
- encapsulation rate higher than that of HHMA ([1]; difference of rates): 35.70%
- encapsulation rate higher than that of SM-102 ([1]; difference of rates): 33.90%
- encapsulation rate higher than that of YK-009 ([1]; difference of rates): 33.20%
- encapsulation rate higher than that of compound 21 ([1]; difference of rates): 38.40%
- encapsulation rate higher than that of compound 23 ([1]; difference of rates): 41%
- RLU / cell transfection efficiency, times that of ALC-0315 (293T cells; Fluc-mRNA LNP): 12.51 times
- RLU / cell transfection efficiency, times that of HHMA (293T cells; Fluc-mRNA LNP): 12.79 times
- RLU / cell transfection efficiency, times that of Lipofectamine 3000 (293T cells; Fluc-mRNA LNP): 22.36 times
- RLU / cell transfection efficiency, times that of YK-009 (293T cells; Fluc-mRNA LNP): 5.24 times
- RLU / cell transfection efficiency, times that of compound 21 (293T cells; Fluc-mRNA LNP): 18.90 times
- RLU / cell transfection efficiency, times that of compound 23 (293T cells; Fluc-mRNA LNP): 20.17 times
- cell transfection efficiency, times that of YK-223 (293T cells; Fluc-mRNA LNP): 280.74 times
- cell transfection efficiency, times that of YK-224 (293T cells; Fluc-mRNA LNP): 239.25 times
- cell transfection efficiency, times that of YK-226 (293T cells; Fluc-mRNA LNP): 365.22 times
- fluorescence absorption value / cell transfection efficiency, times that of YK-203 (293T cells; Fluc-mRNA LNP): 5.44 times
- fluorescence absorption value / cell transfection efficiency, times that of YK-204 (293T cells; Fluc-mRNA LNP): 57 times and 57.85 times
- fluorescence absorption value / cell transfection efficiency, times that of YK-205 (293T cells; Fluc-mRNA LNP): 20.46 times
- fluorescence absorption value / cell transfection efficiency, times that of YK-208 (293T cells; Fluc-mRNA LNP): 5.46 times
- fluorescence absorption value / cell transfection efficiency, times that of YK-210 (293T cells; Fluc-mRNA LNP): 4.55 times
- fluorescence absorption value / cell transfection efficiency, times that of YK-211 (293T cells; Fluc-mRNA LNP): 15.37 times
- fluorescence absorption value / cell transfection efficiency, times that of YK-212 (293T cells; Fluc-mRNA LNP): 5.39 times
- fluorescence absorption value / cell transfection efficiency, times that of YK-213 (293T cells; Fluc-mRNA LNP): 15.43 times
- fluorescence absorption value / cell transfection efficiency, times that of YK-214 (293T cells; Fluc-mRNA LNP): 4.60 times
- fluorescence absorption value / cell transfection efficiency, times that of YK-215 (293T cells; Fluc-mRNA LNP): 21.46 times
- fluorescence absorption value / cell transfection efficiency, times that of YK-216 (293T cells; Fluc-mRNA LNP): 9.24 times
- fluorescence absorption value / cell transfection efficiency, times that of YK-217 (293T cells; Fluc-mRNA LNP): 293.09 times
- fluorescence absorption value / cell transfection efficiency, times that of YK-218 (293T cells; Fluc-mRNA LNP): 34.69 times
- fluorescence absorption value / cell transfection efficiency, times that of YK-219 (293T cells; Fluc-mRNA LNP): 13.98 times
- fluorescence absorption value / cell transfection efficiency, times that of YK-220 (293T cells; Fluc-mRNA LNP): 97.32 times
- fluorescence absorption value, times that of YK-222 (293T cells; Fluc-mRNA LNP): 34.73 times
- Multiples of values that equivalent to YK-209 (293T cells; RLU of YK-209 / RLU of the named lipid): 1.00
- average radiation intensity, times that of ALC-0315 (female BALB/C mice; 6 h): 3.00 times
- average radiation intensity, times that of HHMA (female BALB/C mice; 6 h): 3.95 times
- average radiation intensity, times that of SM-102 (female BALB/C mice; 6 h): 3.72 times
- average radiation intensity, times that of compound 21 (female BALB/C mice; 6 h): 4.20 times
- average radiation intensity, times that of compound 23 (female BALB/C mice; 6 h): 4.25 times
- mRNA expression level, times that of YK-204 (female BALB/C mice; 6 h): 71.62 times
- mRNA expression level, times that of YK-223 (female BALB/C mice; 6 h): 243.77 times
- average radiation intensity (mRNA expression) (female BALB/C mice; 6 h): 2524250
- expression level, times that of YK-215 (female BALB/C mice; 6 hours): 49.92 times
- expression level, times that of YK-217 (female BALB/C mice; 6 hours): 102.67 times
- average radiation intensity, times that of ALC-0315 (female BALB/C mice; 24 h): 10.25 times
- average radiation intensity, times that of HHMA (female BALB/C mice; 24 h): 17.05 times
- average radiation intensity, times that of SM-102 (female BALB/C mice; 24 h): 16.14 times
- average radiation intensity, times that of compound 21 (female BALB/C mice; 24 h): 17.31 times
- average radiation intensity, times that of compound 23 (female BALB/C mice; 24 h): 16.86 times
- mRNA expression level, times that of YK-204 (female BALB/C mice; 24 h): 357.40 times
- mRNA expression level, times that of YK-223 (female BALB/C mice; 24 h): 1046.60 times
- average radiation intensity (mRNA expression) (female BALB/C mice; 24 h): 1869220
- expression level, times that of YK-215 (female BALB/C mice; 24 hours): 274.28 times
- expression level, times that of YK-217 (female BALB/C mice; 24 hours): 705.37 times
- average radiation intensity, times that of ALC-0315 (female BALB/C mice; 48 h): 16.50 times
- average radiation intensity, times that of HHMA (female BALB/C mice; 48 h): 21.36 times
- average radiation intensity, times that of SM-102 (female BALB/C mice; 48 h): 20.59 times
- average radiation intensity, times that of compound 21 (female BALB/C mice; 48 h): 20.95 times
- average radiation intensity, times that of compound 23 (female BALB/C mice; 48 h): 19.61 times
- mRNA expression level, times that of YK-204 (female BALB/C mice; 48 h): 257.82 times
- mRNA expression level, times that of YK-223 (female BALB/C mice; 48 h): 927.85 times
- average radiation intensity (mRNA expression) (female BALB/C mice; 48 h): 629080
- expression level, times that of YK-215 (female BALB/C mice; 48 hours): 172.82 times
- expression level, times that of YK-217 (female BALB/C mice; 48 hours): 614.34 times
- average radiation intensity, times that of ALC-0315 (female BALB/C mice; 7 d): 4.00 times
- average radiation intensity, times that of HHMA (female BALB/C mice; 7 d): 4.96 times
- average radiation intensity, times that of SM-102 (female BALB/C mice; 7 d): 4.47 times
- average radiation intensity, times that of compound 21 (female BALB/C mice; 7 d): 4.32 times
- average radiation intensity, times that of compound 23 (female BALB/C mice; 7 d): 4.52 times
- expression level, times that of YK-215 (female BALB/C mice; 7 d): 25.84 times
- expression level, times that of YK-217 (female BALB/C mice; 7 d): 50.40 times
- mRNA expression level, times that of YK-204 (female BALB/C mice; 7 d): 34.96 times
- mRNA expression level, times that of YK-223 (female BALB/C mice; 7 d): 59.91 times
- average radiation intensity (mRNA expression) (female BALB/C mice; 7 d): 26361
